Measured values: article PMC8218592 (Journal of medicinal chemistry, 2019)

Columns and labels:
IRAP = biological target: T1, IRAP (Mus musculus, UniProt Q8C129); assay: IRAP L-AMC hydrolysis assay; type: biochemical
T1 sequence (Q8C129 132-1025 limits assumed): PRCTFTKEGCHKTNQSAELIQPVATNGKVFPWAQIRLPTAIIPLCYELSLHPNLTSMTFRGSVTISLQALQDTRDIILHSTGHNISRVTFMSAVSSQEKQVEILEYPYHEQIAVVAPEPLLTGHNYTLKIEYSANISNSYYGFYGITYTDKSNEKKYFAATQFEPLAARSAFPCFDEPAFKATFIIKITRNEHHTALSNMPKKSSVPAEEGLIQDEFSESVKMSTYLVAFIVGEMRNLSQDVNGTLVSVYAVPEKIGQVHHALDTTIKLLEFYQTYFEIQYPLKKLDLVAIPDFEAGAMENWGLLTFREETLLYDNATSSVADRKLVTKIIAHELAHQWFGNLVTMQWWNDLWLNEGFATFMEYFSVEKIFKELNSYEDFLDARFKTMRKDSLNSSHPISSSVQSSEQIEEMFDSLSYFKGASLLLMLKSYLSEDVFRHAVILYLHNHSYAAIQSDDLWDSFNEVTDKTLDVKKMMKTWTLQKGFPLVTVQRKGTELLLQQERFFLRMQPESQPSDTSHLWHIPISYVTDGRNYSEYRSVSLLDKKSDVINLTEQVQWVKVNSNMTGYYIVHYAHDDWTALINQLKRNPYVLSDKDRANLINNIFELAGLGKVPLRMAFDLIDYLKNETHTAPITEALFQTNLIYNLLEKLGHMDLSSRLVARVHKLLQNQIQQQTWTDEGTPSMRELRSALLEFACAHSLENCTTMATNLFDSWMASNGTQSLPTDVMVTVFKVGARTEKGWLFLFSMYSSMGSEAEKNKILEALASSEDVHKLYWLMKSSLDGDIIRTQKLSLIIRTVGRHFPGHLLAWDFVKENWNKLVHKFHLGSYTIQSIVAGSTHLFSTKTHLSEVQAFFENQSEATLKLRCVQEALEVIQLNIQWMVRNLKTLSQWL

ERAP1 [1] = biological target: T2, ERAP1 (Homo sapiens, UniProt Q9NZ08); assay: ERAP1 WK10; type: biochemical; details: Figure 3B
T2 sequence (Q9NZ08 22-941): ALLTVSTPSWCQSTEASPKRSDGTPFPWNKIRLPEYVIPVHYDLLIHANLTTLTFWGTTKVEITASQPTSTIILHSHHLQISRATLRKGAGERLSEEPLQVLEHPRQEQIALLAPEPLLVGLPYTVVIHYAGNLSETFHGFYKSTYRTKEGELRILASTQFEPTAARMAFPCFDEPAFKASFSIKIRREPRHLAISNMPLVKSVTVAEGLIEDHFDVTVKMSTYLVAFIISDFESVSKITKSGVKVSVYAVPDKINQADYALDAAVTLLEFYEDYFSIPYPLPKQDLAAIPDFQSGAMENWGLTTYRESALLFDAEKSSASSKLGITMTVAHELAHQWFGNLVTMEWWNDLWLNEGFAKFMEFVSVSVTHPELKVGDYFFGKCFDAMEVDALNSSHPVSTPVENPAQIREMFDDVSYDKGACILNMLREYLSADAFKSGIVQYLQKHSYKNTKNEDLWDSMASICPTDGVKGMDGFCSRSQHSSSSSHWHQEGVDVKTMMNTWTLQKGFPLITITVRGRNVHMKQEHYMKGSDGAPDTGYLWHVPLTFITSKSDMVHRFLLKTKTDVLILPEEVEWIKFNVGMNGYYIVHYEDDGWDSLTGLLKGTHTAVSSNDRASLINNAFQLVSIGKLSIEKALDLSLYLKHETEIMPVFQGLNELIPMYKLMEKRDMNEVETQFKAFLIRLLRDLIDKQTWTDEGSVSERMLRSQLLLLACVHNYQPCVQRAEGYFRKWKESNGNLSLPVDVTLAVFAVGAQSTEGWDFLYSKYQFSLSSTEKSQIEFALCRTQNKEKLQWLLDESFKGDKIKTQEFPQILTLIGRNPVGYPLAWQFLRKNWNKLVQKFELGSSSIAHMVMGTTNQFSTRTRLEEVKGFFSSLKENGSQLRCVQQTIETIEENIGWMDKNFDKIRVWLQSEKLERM

ERAP1 [2] = biological target: T2, ERAP1; assay: ERAP1 L-pNA hydrolysis mode of action kinetics; type: biochemical
ERAP1 [3] = biological target: T2, ERAP1; assay: ERAP1 LF9 peptide hydrolysis coupled-enzyme assay, mode of action; type: biochemical; details: LF9 peptide substrate
ERAP1 K551A = assay: L-AMC activation assay with mutant ERAP1 K551A; type: biochemical, human
ERAP1 allele II = assay: L-AMC hydrolysis assay with ERAP1 allelic variant allele II; type: biochemical, human; details: disease-associated allele II (528K)
ERAP1 [4] = biological target: T2, ERAP1; assay: ERAP1 L-AMC hydrolysis assay; type: biochemical

In the case of `COc1ccc(C(=O)O)cc1S(=O)(=O)Nc1cc(C(F)(F)F)ccc1N1CCCCC1` [Compound 3, 4-Methoxy-3-(N-(2-(piperidin-1-yl)-5-(trifluoromethyl)phenyl)sulfamoyl)benzoic acid], the IC50 (IRAP) is reported as > 200 µM, the “effect on IRAP activity” value (IRAP; Figure 2C) is reported as “no detectable effect” and the “effect on WK10 peptide hydrolysis” value (ERAP1 [1]) is reported as “inhibited peptide hydrolysis in a dose-dependent manner”. The “increase of L-pNA hydrolysis activity (Vmax/Khalf)” value (ERAP1 [2]; over the concentration range tested) was “up to 1.8 fold”, the mode of inhibition (ERAP1 [3]) was “competitive” and the “effect of mutation on L-AMC AC50” value (ERAP1 K551A) was “substantial effect”. The “L-AMC AC50 for ERAP1 allele II” value (ERAP1 allele II) was “sub-micromolar”.

For `N=C(NCCc1c[nH]c2ccccc12)NS(=O)(=O)c1cc(F)ccc1F` [Compound 1, N-(N-(2-(1H-Indol-3-yl)ethyl)carbamimidoyl)-2,5-difluorobenzenesulfonamide], the “effect on WK10 peptide hydrolysis” value (ERAP1 [1]) was “inhibited peptide hydrolysis in a dose-dependent manner”, the mode of inhibition (ERAP1 [2]; L-pNA substrate) was “competitive” and the “change in potency for mutant ERAP1 (L-AMC inhibition)” value (ERAP1 T350A) was “small reduction in potency”.

For `CC(=O)N1CCN(C(=O)C(C)(C)NC(=O)Nc2ccc(C)cc2)CC1` [Compound 22, 1-(1-(4-Acetylpiperazin-1-yl)-2-methyl-1-oxopropan-2-yl)-3-(p-tolyl)urea], the IC50 (IRAP) was > 200 µM.

For `CC(=O)N1CCN(C(=O)C2(NC(=O)Nc3ccccc3)CCCCC2)CC1` [Compound 19, 1-(1-(4-Acetylpiperazine-1-carbonyl)cyclohexyl)-3-phenylurea], the IC50 (IRAP) was > 200 µM.

With `CC(=O)N1CCN(C(=O)C2(NC(=O)Nc3ccc(F)cc3)CCCCC2)CC1` [Compound 18, 1-(1-(4-Acetylpiperazine-1-carbonyl)cyclohexyl)-3-(4-fluorophenyl)urea] the IC50 (IRAP) was > 200 µM.

With `Cc1ccc(NC(=O)NC2(C(=O)N3CCOCC3)CCCCC2)cc1` [Compound 20, 1-(1-(Morpholine-4-carbonyl)cyclohexyl)-3-(p-tolyl)urea] the “activity in ERAP1 L-AMC hydrolysis assay” value (ERAP1 [4]) was “no detectable inhibitory activity” and the IC50 (IRAP) was > 200 µM.

`COc1ccc(NC(=O)NC2(C(=O)N3CCN(C(C)=O)CC3)CCCCC2)cc1` [Compound 17, 1-(1-(4-Acetylpiperazine-1-carbonyl)cyclohexyl)-3-(4-methoxyphenyl)urea] was tested, and the IC50 (IRAP) was > 200 µM.

With `CC(=O)N1CCN(C(=O)C2(NC(=O)Nc3ccc(C)cc3)CCCCC2)CC1` [Compound 2, 1-(1-(4-Acetylpiperazine-1-carbonyl)cyclohexyl)-3-(p-tolyl)urea] the IC50 (IRAP) was > 200 µM.

`CC(=O)N1CCN(C(=O)C2(NC(=O)Nc3ccc(Cl)cc3)CCCCC2)CC1` [Compound 16, 1-(1-(4-Acetylpiperazine-1-carbonyl)cyclohexyl)-3-(4-chlorophenyl)urea] was tested, and the IC50 (IRAP) was > 200 µM.

In the case of `Cc1ccc(NC(=O)NC2(C(=O)N3CCN(c4ccccc4)CC3)CCCCC2)cc1` [Compound 21, 1-(1-(4-Phenylpiperazine-1-carbonyl)cyclohexyl)-3-(p-tolyl)urea], the “activity in ERAP1 L-AMC hydrolysis assay” value (ERAP1 [4]) is reported as “no detectable inhibitory activity” and the IC50 (IRAP) is reported as > 200 µM.

For `CC(=O)N1CCN(C(=O)C2(NC(=O)Nc3ccc(C)cc3)CC2)CC1` [Compound 23, 1-(1-(4-Acetylpiperazine-1-carbonyl)cyclopropyl)-3-(p-tolyl)urea], the IC50 (IRAP) was > 200 µM.
